Assay results: patent US20240277890A1, “ANTIMICROBIAL ARTICLES COMPRISING POLYURETHANE” (Amicoat AS, priority 2021, published 2024)
In brackets after ≈: the same amount, converted by molar mass.

Key:
[1] = system: Candida parapsilosis ATCC90018 - reference strain
[2] = system: Enterococcus faecalis vancomycin-resistant (VanB) clinical isolate
[3] = system: Enterococcus gallinarum vancomycin-resistant (VanC) clinical isolate
[4] = system: Staphylococcus haemolyticus - antibiotic susceptible clinical isolate
[5] = system: Microsporum canis - G.R. Micro collection
[6] = system: E. coli
[7] = system: Group C Streptococcus - antibiotic-susceptible clinical isolate
[8] = system: Haemophilus influenzae β-lactamase negative ampicillin-resistant clinical isolate
[9] = system: Staphylococcus aureus - methicillin-resistant clinical isolate
[10] = system: Pseudomonas aeruginosa ATCC27853 - antibiotic-susceptible type strain; settings: ATCC27853
[11] = system: Salmonella sp - antibiotic-susceptible clinical isolate; assay: MIC microbroth dilution (CLSI); format: cell-based
[12] = system: Klebsiella aerogenes - multi-drug resistant clinical isolate
[13] = system: Enterococcus faecalis vancomycin-resistant (VanA) clinical isolate
[14] = system: Shigella sp - antibiotic-susceptible clinical isolate; assay: MIC microbroth dilution (CLSI); format: cell-based
[15] = system: Enterococcus faecium vancomycin-resistant (VanA) clinical isolate
[16] = system: Salmonella sp - multi-drug resistant clinical isolate; assay: MIC microbroth dilution (CLSI); format: cell-based
[17] = system: Corynebacterium jeikeium - antibiotic-susceptible clinical isolate
[18] = system: Group G Streptococcus - antibiotic-susceptible clinical isolate
[19] = system: Staphylococcus aureus - teicoplanin-intermediate clinical isolate
[20] = system: Staphylococcus aureus ATCC 25923 - antibiotic-susceptible control strain
[21] = system: HT2001254 Staphylococcus aureus (MRSA) - PVL positive; settings: HT2001254 S. aureus (MRSA) PVL positive
[22] = system: Streptococcus bovis - antibiotic-susceptible clinical isolate
[23] = system: Methicillin resistant Staphylococcus aureus (MRSA) strain ATCC 33591; settings: ATCC 33591
[24] = system: MU50 Staphylococcus aureus (MRSA) - VISA type strain
[25] = system: Enterococcus faecium vancomycin-susceptible clinical isolate
[26] = system: Pseudomonas aeruginosa - multi-drug resistant clinical isolate
[27] = system: Corynebacterium jeikeium - multi-drug resistant clinical isolate
[28] = system: Staphylococcus aureus ATCC 43300 - methicillin-resistant control strain
[29] = system: Staphylococcus aureus FDA486; assay: Murine skin infection model, one day topical treatment; format: in vivo, mice; settings: 2% cream; compared to placebo cream, Fucidin ointment 2% and Bactroban cream 2%
Protocol: The skin of mice was infected with Staphylococcus aureus or Streptococcus pyogenes and subsequently given a total of three treatments at three hourly intervals. Three hours after the last treatment, skin biopsies were collected and the number of colony forming units (CFUs) present in the skin sample was determined. Results are shown in FIGS. 3, 4 and 5 expressed as the number of colony forming units per mouse.

[30] = system: Staphylococcus aureus - multi-drug-resistant clinical isolate
[31] = system: Stenotrophomonas maltophilia - antibiotic-susceptible clinical isolate
[32] = system: Aspergillus niger - G.R. Micro collection
[33] = system: Streptococcus bovis - macrolide-resistant clinical isolate
[34] = system: C. albicans
[35] = system: EMRSA1 Staphylococcus aureus (MRSA) - SSCmec type 3; settings: EMRSA1 - SSCmec type 3
[36] = system: Enterococcus faecium vancomycin-resistant (VanB) clinical isolate
[37] = system: Streptococcus agalactiae - antibiotic-susceptible clinical isolate
[38] = system: Staphylococcus aureus, strain ATCC 25923; settings: ATCC 25923
[39] = system: S. pyogenes

CCCCCCNC(=O)[C@H](CCCNC(=N)N)NC(=O)[C@H](Cc1c(C(C)(C)C)[nH]c2c(C(C)(C)C)cc(C(C)(C)C)cc12)NC(=O)[C@@H](N)CCCNC(=N)N [Compound 8]
MIC [1]: 8 µg/mL (≈ 10.4 µM)
MIC [2]: 8 µg/mL (≈ 10.4 µM)
MIC [3]: 4 µg/mL (≈ 5.21 µM)
MIC [4]: 4 µg/mL (≈ 5.21 µM)
MIC [5]: 4 µg/mL (≈ 5.21 µM)
E. coli (MIC) [6]: 5 µg/mL
MIC [7]: 8 µg/mL (≈ 10.4 µM)
MIC [8]: 8 µg/mL (≈ 10.4 µM)
MIC [9]: 4 µg/mL (≈ 5.21 µM)
MIC [10]: 8 µg/mL (≈ 10.4 µM)
MIC [11]: 8 µg/mL (≈ 10.4 µM)
MIC [12]: 8 µg/mL (≈ 10.4 µM)
MIC [13]: 4 µg/mL (≈ 5.21 µM)
MIC [14]: 4 µg/mL (≈ 5.21 µM)
MIC [15]: 4 µg/mL (≈ 5.21 µM)
MIC [16]: 8 µg/mL (≈ 10.4 µM)
MIC [17]: 4 µg/mL (≈ 5.21 µM)
MIC [18]: 8 µg/mL (≈ 10.4 µM)
MIC [19]: 4 µg/mL (≈ 5.21 µM)
MIC [20]: 4 µg/mL (≈ 5.21 µM)
MIC [21]: 4 µg/mL (≈ 5.21 µM)
MIC [22]: 8 µg/mL (≈ 10.4 µM)
MRSA (MIC) [23]: 2 µg/mL
MIC [24]: 4 µg/mL (≈ 5.21 µM)
MIC [25]: 4 µg/mL (≈ 5.21 µM)
MIC [26]: 4 µg/mL (≈ 5.21 µM)
MIC [27]: 2 µg/mL (≈ 2.6 µM)
MIC [28]: 4 µg/mL (≈ 5.21 µM)
number of CFUs in skin biopsy [29]: more effective at reducing the number of CFUs than the placebo and fucidin or bactroban
MIC [30]: 4 µg/mL (≈ 5.21 µM)
MIC [31]: 4 µg/mL (≈ 5.21 µM)
MIC [32]: 4 µg/mL (≈ 5.21 µM)
MIC [33]: 2 µg/mL (≈ 2.6 µM)
C. albicans (MIC) [34]: 5 µg/mL
MIC [35]: 4 µg/mL (≈ 5.21 µM)
MIC [36]: 4 µg/mL (≈ 5.21 µM)
MIC [37]: 8 µg/mL (≈ 10.4 µM)
S. aureus (MIC) [38]: 2 µg/mL
S. pyogenes (MIC) [39]: 2 µg/mL
